Measured values from patent US20030170722A1, “Methods and reagents for regulating apoptosis” (priority 2001, published 2003).

Columns and labels:
Format in all cases: cell-based
Rat2 fibroblasts [1] = test: TUNEL analysis of staurosporine-induced apoptosis in Rat2puro / Rat2M11L cells; details: 2 μM staurosporine, 5 h
Method: Ectopic Expression of M11L. Control pBabePuro and pBabe-PuroM11L vectors were transiently transfected into BOSC 23 cells and packaged into ecotropic virus particles as described (27). After infection of Rat2 fibroblasts, pooled clones of cells that had stably incorporated the respective proviruses were selected on the basis of ability to grow in the presence of 2.5 μg/ml puromycin, and designated Rat2puro and Rat2M11L. Expression of the M11L protein by Rat2M11L cells was verified by immunoblot analysis (data not shown). Transient expression of GFP chimeric proteins for flow cytometry was accomplished by transfecting HeLa cells with GFP plasmid constructs using the Lipofectin Plus reagent (GIBCO BRL) as described (28). Analysis was conducted 24 h after transfection.
Induction and Measurement of Apoptosis. Apoptosis was induced by addition of staurosporine (Sigma Chemical Co.) to the cell culture medium at a final concentration of 2 μM. Apoptotic cells were identified by measuring the characteristic elevation in levels of nicked DNA using the previously described terminal deoxynucleotidyl transferase-mediated dUTP-fluorescein nick end labeling (TUNEL) reaction (19, 29).

Caspase-3 = Caspase-3 activation by SDS-PAGE and immunoblot in Rat2puro / Rat2M11L cells; details: 5 μM staurosporine, 4 h
Method: Measurement of Caspase-3 Activation. Rat2puro and Rat2-M11L cells (10^6) were incubated with 5 μM staurosporine for up to 4 h. Caspase-3 activation was detected by SDS-PAGE and immunoblot analysis as described (30) using an antibody directed against the large subunit of the active enzyme (provided by Dr. D. Nicholson, MerckFrosst Center for Therapeutic Research, Montreal, Quebec, Canada).

HeLa cells = test: Mitochondrial membrane potential by TMRE fluorescence in HeLa cells expressing GFP constructs; details: CCCP
Method: Measurement of Mitochondrial Membrane Potential in Cells Expressing M11L Constructs. […] Flow cytometric analysis was conducted using a Becton Dickinson FACSCalibur™ flow cytometer equipped with an argon ion laser with 15 mW of excitation at 488 nm. […] HeLa cells transiently expressing GFP plasmid constructs were treated with 2.5 μM staurosporine, and control samples were treated with DMSO alone. […] Flow cytometric analysis to detect green fluorescence due to GFP and orange fluorescence due to TMRE was conducted using a FACSCalibur™ instrument specified above. GFP fluorescence was collected after a 530/30-nm band pass filter, and TMRE fluorescence was acquired through a 585/42-nm band pass filter. Electronic fluorescence compensation was set to eliminate any spectral overlap of the emitted signals. Data were acquired at 10,000 cells per sample with fluorescence signals at logarithmic gain. The percentage of GFP-positive cells that were also TMRE-positive was then calculated for each gated cell population.

Rat2 fibroblasts [2] = details: control cells, CCCP 50 μM
Method: Measurement of Mitochondrial Membrane Potential in Cells Expressing M11L Constructs. Rat2puro or Rat2M11L cells were cultured in 12-well plates (5×10^5 cells/well) and treated with 2 μM staurosporine for 4 h. As the staurosporine stock was prepared in DMSO, control cells were treated with an equivalent amount of DMSO alone. Thereafter, the cells were stained with the green fluorescent dye 3,3′dihexyloxacarbocyanine iodide (DiOC6; Molecular Probes). […] Cells were incubated with 0.5 nM DiOC6 at 37° C. for 10 min, harvested with trypsin, and then washed and resuspended in RPMI lacking phenol red (GIBCO BRL). […] CCCP was added to the cell culture medium at a final concentration of 50 μM during and after dye addition. Flow cytometric analysis was conducted using a Becton Dickinson FACSCalibur™ flow cytometer equipped with an argon ion laser with 15 mW of excitation at 488 nm. Data were acquired at 10,000 cells per sample, and the fluorescent signal due to excitation of DiOC6 at 488 nm was detected through the FL1 channel equipped with a 530 nm filter (30 nm band pass). Light scatter signals were acquired at linear gain, and fluorescence signals were acquired at logarithmic gain.

Compound	levels of TUNEL-positive (apoptotic) cells (Rat2 fibroblasts [1])	Caspase-3 activation (32 kD proenzyme reduced, p19 cleavage product) (Caspase-3)	TMRE fluorescence (mitochondrial membrane potential) (HeLa cells)	DiOC6 fluorescence (mitochondrial membrane potential) (Rat2 fibroblasts [2])
CN[C@@H]1C[C@H]2O[C@@](C)([C@@H]1OC)n1c3ccccc3c3c4c(c5c6ccccc6n2c5c31)C(=O)NC4 [staurosporine]	steady increase in the levels of TUNEL-positive Rat2puro cells	resulted in activation of Caspase-3	–	–
carbonyl cyanide mchlorophenyl hydrazone [CCCP]	–	–	induced a marked loss of TMRE fluorescence	Fluorescence was diminished
